{
  "source": "patent US9283209B2",
  "about": "“Oral formulations of deferasirox” (NOVARTIS AG, priority 2013, dated 2016)",
  "key": {"[1]": {"experiment": "Exjade (deferasirox) solubility profile at 37 C", "format": "physicochemical", "from_the_text": "Due to the poor solubility of Exjade™ (deferasirox), a high dose is required to achieve the desired therapeutic effect, which results in unwanted side effects, such as gastrointestinal (GI) irritation and kidney toxicity. […] To meet the high dose requirement and reduce pill burden Exjade™ (deferasirox) was developed as dispersible tablets with about 29.4% drug load. The disadvantage of this type of formulation is that the tablets have to be dispersed in water or appropriate liquid, such as in orange juice or apple juice and stirred until a fine suspension is obtained prior to administration. Further, the dispersible tablets have to be taken at least 30 minutes before food."}, "[2]": {"experiment": "Study 2209: one year study in NTDT patients, GI adverse event rates", "format": "in vivo, human", "details": "10 mg/kg", "from_the_text": "The new Exjade formulations represent a significant improvement in patient care and support compliance with chelation therapy because of the improved pharmaceutical properties and because of the changes in composition. […] Exjade currently also contains lactose and so is not recommended in patients with rare hereditary problems of galactose intolerance, the Lapp lactase deficiency, glucose-galactose malabsorption or severe lactase deficiency. Novartis believes the exclusion of lactose and sodium lauryl sulfate in the new formulations will improve the gastrointestinal tolerability of the product."}, "[3]": {"experiment": "Patient study A0105F: Exjade after high-fat breakfast", "format": "in vivo, human", "details": "patients", "protocol": "(§1) Therefore, patients would only be exposed to the highest approved dose (40 mg/kg/day for the current formulation) after an extended period of up-titration with confirmed tolerability • the absence of a significant food effect results in a lower risk of increased exposure when the drug is taken with a meal."}, "[4]": {"experiment": "Thorough QT healthy volunteer study", "format": "in vivo, human", "details": "human, in vivo, oral, 40 mg/kg, 40 mg/kg immediately after a high-fat breakfast, 44 healthy volunteers", "protocol": "as §1\n(§2) Deferasirox Cmax values in healthy volunteers are generally higher than in patients. Two healthy volunteer studies in the initial registration package in 2005 were therefore reviewed for potential Cmax-related adverse events."}, "QT interval": {"tested_on": "QT interval", "experiment": "Thorough QT healthy volunteer study", "format": "in vivo, human", "protocol": "as §1, §2"}, "[5]": {"experiment": "Randomized crossover bioequivalence study, Exjade dispersed in fruit juice or water", "format": "in vivo, human", "details": "single 20 mg/kg dose, 28 healthy volunteers, 2.5 to 5 hours after intake", "from_the_text": "as §2"}, "[6]": {"tested_on": "serum creatinine, creatinine clearance", "details": "human, in vivo", "quoted_text": "In addition, a new analysis of creatinine and creatinine clearance changes was performed to explore whether deferasirox-associated renal changes are a function of peak exposure (Cmax) or of overall exposure (AUC). The analysis used data from the large multicenter study 7, in which Ctrough (a proxy of AUC) and deferasirox C2h (a proxy of Cmax) was collected at multiple time points.\nBased on study 7 data, the relationship between PK parameters at steady state (Ctrough and C2h) and serum creatinine was investigated by using a linear mixed model of log-transformed creatinine values (1990 observations at week 12 and 28) with patient included in model as a random effect. After log-transformation, baseline creatinine levels, C2h and Ctrough were included as predictors in the model."}, "[7]": {"details": "40 mg/kg after high-fat breakfast, 44 volunteers"}},
  "note": "Read-outs that look alike come from different tables or passages of the source.",
  "data": [
    {"smiles": "O=C(O)c1ccc(-n2nc(-c3ccccc3O)nc2-c2ccccc2O)cc1", "note": "[deferasirox]", "values": [
      {"measurement": "solubility", "setting": "[1]; aqueous buffer, pH 3, 37 C", "result": "< 10", "unit": "µg/mL"},
      {"measurement": "solubility", "setting": "[1]; aqueous buffer, pH 4, 37 C", "result": "< 10", "unit": "µg/mL"},
      {"measurement": "solubility", "setting": "[1]; aqueous buffer, pH 5, 37 C", "result": "< 10", "unit": "µg/mL"},
      {"measurement": "solubility", "setting": "[1]; aqueous buffer, pH 7.5, 37 C", "result": 167, "unit": "µg/mL"},
      {"measurement": "solubility", "setting": "[1]; simulated gastric fluid, pH 1, 37 C", "result": "< 10", "unit": "µg/mL"},
      {"measurement": "solubility", "setting": "[1]; simulated gastric fluid, pH 2, 37 C", "result": "< 10", "unit": "µg/mL"},
      {"measurement": "solubility", "setting": "[1]; water, 37 C", "result": 20, "unit": "µg/mL"},
      {"measurement": "GI adverse event rate", "setting": "[2]", "result": 36.4, "unit": "%"},
      {"measurement": "Change in exposure after a high-fat breakfast", "setting": "[3]", "result": "nearly doubled"},
      {"measurement": "Cmax", "setting": "[4]; read-out: Cmax (average)", "result": 256, "unit": "µM"},
      {"measurement": "Cmax", "setting": "[4]; read-out: Cmax (range)", "result": "134 to 472", "unit": "µM"},
      {"measurement": "GI symptoms (diarrhea/loose stools, flatulence, and nausea)", "setting": "QT interval; [7]", "result": 18, "unit": "%"},
      {"measurement": "Headache and dizziness, one patient each", "setting": "QT interval; [7]", "result": 2, "unit": "%"},
      {"measurement": "Effect on the QT interval", "setting": "QT interval; healthy volunteers, doses up to 40 mg/kg", "result": "no effect"},
      {"measurement": "HV subjects reporting loose stools", "setting": "[5]", "result": "three"},
      {"measurement": "Estimate, Log (C2h)", "setting": "[6]", "result": 0.03287},
      {"measurement": "Estimate, Log (Ctrough)", "setting": "[6]", "result": 0.06504},
      {"measurement": "Estimate, Log (baseline creatinine)", "setting": "[6]", "result": 0.9593},
      {"measurement": "Estimate, Log(C2h)", "setting": "[6]", "result": "−0.00203"},
      {"measurement": "Estimate, Log(Ctrough)", "setting": "[6]", "result": 0.9346},
      {"measurement": "Estimate, Log(baseline creatinine clearance)", "setting": "[6]", "result": "−10.3474"},
      {"measurement": "OR for a 2-fold increase in PK parameter, Log(C2h)", "setting": "[6]", "result": 0.999},
      {"measurement": "OR for a 2-fold increase in PK parameter, Log(Ctrough)", "setting": "[6]", "result": 1.911},
      {"measurement": "OR for a 30% increase in PK parameter, Log(Ctrough)", "setting": "[6]", "result": 1.278},
      {"measurement": "Slope of linear regression between Day 1 C2h and percent change in serum creatinine at week 4", "setting": "[6]", "result": "0.03 (−0.01, 0.08)"}
    ]}
  ]
}
